Assays:
[1] = tested on: single transgenic HPS70/hGH primary hepatocytes (PHGH); assay: toxicity test, hGH secretion by primary transgenic hepatocytes (PHGH); type: cell-based, mice
Text: On the basis of the results illustrated, for the further analyses, clone no. […] The response to the toxic stress of the clone MMH/GH5 was then compared with the one obtained in single transgenic HPS70/hGH primary hepatocytes (PHGH). A representative sample of the cell line derived from said clone MMH/GH5 was deposited in accordance with and for the purposes of the Treaty of Budapest on the international recognition of deposit of micro-organisms for the purposes of the patents procedure with the AID “Centro di Biotecnologie Avanzate (CBA), Interlab Cell Line Collection (ICLC)” Servizio Biotecnologie, Largo R. Benzi, 10, 16132 Genova, Italy, on Jul. 30, 2002, where it was given identification number PD 02007.
(§1) In table 3 the cellular survival percentage was determined with the Trypan Blue exclusion method. […]
(§2) For treatment, the two types of cells were treated with different concentrations of the compounds for 1 or 5 hours and then with normal medium for a further 24 hours. The effects of the treatment were assessed as described previously for the inorganic toxicants.

[2] = tested on: primary hepatocytes (PHGH); assay: cellular survival of PHGH, Trypan Blue exclusion; type: cell-based, mice; design: % cellular survival, PHGH 1 + 24 h / % cellular survival, PHGH 5 + 24 / % vitality of the cells, PHGH 1 + 24 h / % vitality of the cells, PHGH 5 + 24 h: unit of the concentration uncertain; conditions: for % cellular survival, PHGH 1 + 24 h / % vitality of the cells, PHGH 1 + 24 h: 1 h treatment + 24 h normal medium; for % cellular survival, PHGH 5 + 24 / % vitality of the cells, PHGH 5 + 24 h: 5 h treatment + 24 h normal medium
Text: (§3) This different behaviour is explained by the greater sensitivity to the toxicant of the PHGH with respect to the MMH/GH5 as shown by analysis of the cellular vitality performed with the Trypan Blue method (FIG. 1, graph B). […] Therefore the greater resistance of the cells MMH/GH/5 to the toxicants constitutes another evident advantage as it permits the exclusion of false negatives in which the non-release of hGH, due to cellular death, is interpreted as non-toxicity of the compound. When the supernatant is collected after 5 hours of treatment followed by 24 hours of culture with normal medium (FIG. 1 graph C) the PHGHs respond, at the lowest concentrations of the two toxicants, with high levels of secretion of hGH and, at the highest concentrations, with low levels of secretion of hGH (lower cellular survival, graph D).
as §1, §2

[3] = tested on: MMH/GH5 cells; assay: cellular survival of MMH/GH5, Trypan Blue exclusion; type: cell-based, mice; design: % cellular survival, MMHGH/5 1 + 24 h / % cellular survival, MMHGH/5 5 + 24 / % vitality of the cells, MMH/GH 1 + 24 h / % vitality of the cells, MMH/GH 5 + 24 h: unit of the concentration uncertain; conditions: for % cellular survival, MMHGH/5 1 + 24 h / % vitality of the cells, MMH/GH 1 + 24 h: 1 h treatment + 24 h normal medium; for % cellular survival, MMHGH/5 5 + 24 / % vitality of the cells, MMH/GH 5 + 24 h: 5 h treatment + 24 h normal medium
Text: as §3, §1, §2

[4] = tested on: MMH/GH5 cells (Clone 5)
[5] = 0.5 (unit uncertain), Trypan Blue
[6] = 1 (unit uncertain), Trypan Blue
[7] = 10 (unit uncertain), Trypan Blue
[8] = 50 (unit uncertain), Trypan Blue (Table 4)
[9] = 5 (unit uncertain), Trypan Blue

Compound | % cellular survival, PHGH 1 + 24 h [2, 5] [%] | % cellular survival, PHGH 5 + 24 [2, 5] [%] | % cellular survival, PHGH 1 + 24 h [2, 6] [%] | % cellular survival, PHGH 5 + 24 [2, 6] [%] | % cellular survival, MMHGH/5 1 + 24 h [3, 5] [%] | % cellular survival, MMHGH/5 5 + 24 [3, 5] [%] | % cellular survival, MMHGH/5 1 + 24 h [3, 6] [%] | % cellular survival, MMHGH/5 5 + 24 [3, 6] [%] | % vitality of the cells, PHGH 1 + 24 h [2, 8] [%] | % vitality of the cells, PHGH 5 + 24 h [2, 8] [%] | % vitality of the cells, MMH/GH 1 + 24 h [3, 8] [%] | % vitality of the cells, MMH/GH 5 + 24 h [3, 8] [%] | other results
C=CC(O)CCCCC (centres unmarked) [1-Oct, 1-octene-3-ol] | 90 | 60 | 50 | 20 | 90 | 50 | 70 | 20 |  |  |  |  | effect of the treatment (hGH secretion) ([1]; PHGH versus MMH/GH, at the end of the treatment): can be measured only in PHGH; cellular survival ([2]; PHGH, words, Table 3): reduced cellular survival
O=C1C=CCC1 [2-Cycl, 2-cyclopentene-1-one] | 90 | 90 | 80 | 60 | 90 | 90 | 90 | 90 |  |  |  |  | response (hGH secretion) in MMH/GH5 ([4]; words, Table 3): rapid response
c1ccc2c(c1)cc1ccc3cccc4ccc2c1c34 [BaP, Benzo(a)Pyrene] |  |  |  |  |  |  |  |  | 50 | 30 | 90 | 90 | stimulation of the promoter HSP70 in the PHGHs ([1]; words, Table 4): does not stimulate; % vitality of the cells, PHGH 1 + 24 h [2, 7]: 50%; % vitality of the cells, PHGH 5 + 24 h [2, 7]: 50%; % vitality of the cells, MMH/GH 1 + 24 h [3, 7]: 90%; % vitality of the cells, MMH/GH 5 + 24 h [3, 7]: 90%
O=[N+]([O-])c1ccc(Cl)c([N+](=O)[O-])c1 [CDNB, 1-Chloro-2,4-DiNitro-Benzene] |  |  |  |  |  |  |  |  | 5 | 5 | 70 | 20 | secretion of the hGH from the MMH/GH5 cells ([4]; all the conditions tested): considerable secretion; % vitality of the cells, PHGH 1 + 24 h [2, 9]: 80%; % vitality of the cells, PHGH 5 + 24 h [2, 9]: 40%; % vitality of the cells, MMH/GH 1 + 24 h [3, 9]: 80%; % vitality of the cells, MMH/GH 5 + 24 h [3, 9]: 60%; toxicity on MMH/GH5 cells compared with PHGHs ([3]; words, data in table 4): less toxic

— patent publication US20050255595A1, “Genetically modified non-human mammal cells, procedure for their production and use in toxicity tests” (priority 2002, published 2005)
